Legend:
SARS-CoV-2 [1] = assay: In vivo antiviral activity against SARS CoV-2 Gamma strain (hCoV-19/Japan/TY7-501/202) harbouring spike protein K417T mutant intranasally inoculated in BALB/c mouse assessed as reduction in lung intrapulmonary viral titer administered orally immediately after viral infection and 12 hrs after infection measured after 24 hrs of post infection; format: functional, organism-based; conditions: Severe acute respiratory syndrome coronavirus 2, route po, DDE = dose-dependent effect
SARS-CoV-2 [2] = assay: In vivo antiviral activity against SARS CoV-2 gamma strain (hCoV-19/Japan/TY7-501/202) harbouring spike protein K417T mutant intranasally inoculated in BALB/c mouse assessed as reduction in lung intrapulmonary viral titer at 16 to 32 mg/kg, po immediately after viral infection and 12 hrs after viral infection measured after 24 hrs of post infection; format: functional, Severe acute respiratory syndrome coronavirus 2; conditions: dose 16-32 mg/kg

Cn1cnc(Cn2c(=O)[nH]/c(=N\c3cc4cn(C)nc4cc3Cl)n(Cc3cc(F)c(F)cc3F)c2=O)n1
Activity (SARS-CoV-2 [1]): Dde | TCID50 (SARS-CoV-2 [2]): 1.8 log10/ml

From ChEMBL document CHEMBL5154827, “Discovery of S-217622, a Noncovalent Oral SARS-CoV-2 3CL Protease Inhibitor Clinical Candidate for Treating COVID-19” (J Med Chem, 2022)
